For one series, the system named is male Sprague-Dawley rats. The series is described as follows: Global liver ischemia/reperfusion-induced lethality in rats. The series is classed as in vivo, rat. Particulars: ip 20 h prior, global ischemia 60 min; CS 100 mg/kg; cholesterol 64 + tris succinate 100 mg/kg. The protocol: 20 hours prior to global occlusion, one group of 10 rats was provided with 64 mg cholesterol/kg body weight and 100 mg tris succinate/kg body weight by i.p. injection, and another group of 10 rats was provided with 100 mg cholesteryl succinate/kg body weight. A control group of rats was only partially occluded for the one hour period. Ninety percent of the rats pretreated with cholesteryl succinate tris salt survived while only 10% of those pretreated with the combination of cholesterol and tris succinate survived. Table 22 of a partial ischemia study where male Sprague-Dawley rats were subjected to occlusion of the blood supply to the left lateral and median lobes of the liver for 60 minutes followed by reperfusion for 24 hours. During this time, the normal blood supply to the other lobes of the liver was maintained. […] Serum was obtained for AST and ALT measurements.
^a Global (total) or partial liver ischemia was induced 20 hours

The subject of the next series is CDF1 mice. The series is described as follows: Doxorubicin lethality in CDF1 mice (normal tissue). The series is classed as in vivo, mouse. As to conditions: 100 mg/kg ip 20 h prior, DOX 10, 15, 20, 25 mg/kg. The protocol:
The experiments were conducted in accordance with NCI Protocol 1,100. FIGS. 8a-d show the experimental results obtained when male CDF1 mice (n=6) received either vehicle only or 100mg/kg body weight i.p. dose of either alpha-TS or cholesteryl succinate 20 hours prior to DOX administration. FIGS. 8a-d respectively show the results obtained when the mice received 10, 15, 20, and 25 mg DOX/kg body weight. […] FIGS. 9a-d show the experimental results obtained when male CDF1 mice ([…]) were injected (i.p.) with 10^6 murine L1210 leukemia cells followed immediately by an injection of alpha-TS tris salt (100 mg/kg, i.p.) or saline injection (vehicle), and twenty hours later (Day=0) each mouse in three of the groups was i.p. injected with 15, 20, or 25 mg DOX/kg body weight ([…]). Survival was monitored for twenty days.

The test system of series [1] is rat hepatocytes. As to the kind of experiment: Cellular alpha-tocopherol and tocopherol ester content of rat hepatocytes. Particulars: for Hepatocyte Concentration Alpha-T / Hepatocyte Concentration Alpha-TS: EMS 3 h.
Series [2] relates to platelet phospholipase A2. Particulars: cited from earlier work.
In the next series the test system is epidermoid carcinomas. Particulars: local administration; cited from earlier work.
Series [3] in a line: Cytotoxicity of various toxic insults (A23187, cadmium, O2, doxorubicin, CCl4, hypoxia) in rat hepatocytes. It counts as cell-based. Particulars: rat, hepatocytes; Control (vehicle only, no insult), 25 μM alpha-TS; read-out: % Cell Death. The protocol: (§1) Only viable cells were monitored in the laboratory procedures.
(§2) In vitro experiments were performed to determine if alpha-TS could protect cells from different toxic insults. Under physiological conditions, rat hepatocytes were incubated with medium containing 25 μM alpha-TS. The hepatocytes were exposed to EMS, a potent mutagen and alkylating agent; the ionophore A23187, a membrane active compound that permits the equilibration of divalent cations across cell membranes; cadmium, a heavy metal, environmental contaminant, and known carcinogen who's mechanism of toxicity remains unknown; 95% O2, an excessive oxygen insult that produces an abundance of toxic oxygen free radicals and reactive oxygen intermediates in the cell; doxorubicin (adriamycin), a clinically important antitumor agent with cytotoxic effects proposed to result from its metabolic activation and the generation or reactive oxygen species; carbon tetrachloride (CCl4); and hypoxia (an absence of oxygen followed by reoxygenation).

Series [4] deals with rat hepatocytes. The series is described as above. The series is classed as cell-based. Here is the method:
as §1, §2

In a further series the test system is Sprague-Dawley rats. The series is described as follows: Paraquat lethality in rats. As to conditions: rat, in vivo. The protocol:
Rats received a 100 mg/kg (ip) dose of alpha-TS twenty four hours prior to a 40 mg/kg (ip) insult of paraquat which is a lung specific toxic agent. The rats also received a 100 mg/kg (ip) dose of alpha-TS each day after the paraquat insult.

The test system of series [5] is rat hepatocytes. As to conditions: cited from earlier work.
[6] abbreviates: 50 mM EMS + 25 μM alpha-TS + 100 μM Bis-(p-nitrophenyl) phosphate.
Setting [7] is: 50 mM EMS + 25 μM alpha-TS + 100 μM Diethyl p-nitrophenyl phosphate.

The structures appear in SMILES notation. Structures can show the parent of a compound that is named as a salt.

Turning to `CC(C)CCC[C@@H](C)[C@H]1CC[C@H]2[C@@H]3CC=C4C[C@@H](OC(=O)CCC(=O)O)CC[C@]4(C)[C@H]3CC[C@]12C` [Cholesteryl Succinate tris salt], the “% Survival” value in the series on male Sprague-Dawley rats is given as 90%.

`Cc1c(C)c2c(c(C)c1OC(=O)CCC(=O)O)CC[C@@](C)(CCC[C@H](C)CCC[C@H](C)CCCC(C)C)O2` [alpha-TS, d-alpha-tocopheryl succinate]: the “survival after DOX, normal mice (FIGS. 8a-d)” value in the series on CDF1 mice was “survived significantly longer”. Also, in the series with rat hepatocytes [1] (0.5 μM), the “cellular alpha-TS content” value was “approximately 0.025 nmoles/10^6 cells”. Moreover, the “Hepatocyte Concentration Alpha-T” value with rat hepatocytes [1] (2.0 μM) is reported as 0.4 ± 0.1 nmol/10^6 cells; in the series with rat hepatocytes [1] (10 μM), 0.8 ± 0.1 nmol/10^6 cells; with rat hepatocytes [1] (25 μM), 0.9 ± 0.1 nmol/10^6 cells; with rat hepatocytes [1] (250 μM), 0.9 ± 0.1 nmol/10^6 cells; with rat hepatocytes [1] (.5 μM), 0.2 ± 0.1 nmol/10^6 cells. Moreover, the “Hepatocyte Concentration Alpha-TS” value stood at 0.2 ± 0.1 nmol/10^6 cells in the series with rat hepatocytes [1] (2.0 μM), 0.7 ± 0.1 nmol/10^6 cells with rat hepatocytes [1] (10 μM), 2.5 ± 0.1 nmol/10^6 cells in the series on rat hepatocytes [1] (25 μM) and 7.6 ± 1.7 nmol/10^6 cells with rat hepatocytes [1] (250 μM). The “cellular accumulation rate of alpha-TS” value in the series with rat hepatocytes [1] (25 μM dose) is 1.65 nmol/10^6 cells/hr. Moreover, in the series on rat hepatocytes [1] (25 μM dose), the “cellular release rate of succinate (as measured by alpha-tocopherol release)” value is 0.65 nmol/10^6 cells/hr. Besides, in the series with rat hepatocytes [1] (25 μM, Table 2), the “Cellular Tocopherol ester” value came out at 2.6 nmoles/10^6 cells. The “Cellular alpha-T” value with rat hepatocytes [1] (25 μM, Table 2) is reported as 0.7 nmoles/10^6 cells; in the series on rat hepatocytes [1] (50 mM EMS + 25 μM alpha-TS), “.81 ± .05 nmoles/10^6 cells”; in the series with rat hepatocytes [1] (setting [6]), “.20 ± .05 nmoles/10^6 cells”; in the series on rat hepatocytes [1] (setting [7]) it was “.19 ± .05 nmoles/10^6 cells”. The “Cellular alpha-TS” value with rat hepatocytes [1] (50 mM EMS + 25 μM alpha-TS) is 2.73 ± .67 nmoles/10^6 cells; in the series on rat hepatocytes [1] (setting [6]) it was 2.61 ± .61 nmoles/10^6 cells; in the series on rat hepatocytes [1] (setting [7]) it was 2.56 ± .24 nmoles/10^6 cells. For the same compound, in series [2], the “inhibition of platelet phospholipase A2 activity” value was “inhibits platelet phospholipase A2 activity”. The tumor regression result with epidermoid carcinomas is “dramatic regression”. Also, the cytotoxicity at 25 µM in [3] was 21%. Besides, the “% Cell Death” value came out at 23% in the series on rat hepatocytes [4] (95% Oxygen, 25 μM alpha-TS (no alpha-TS 57)); 38% in the series on rat hepatocytes [4] (CCl4 2.5 mM, 25 μM alpha-TS (no alpha-TS 63)); 24% in the series with rat hepatocytes [4] (Cadmium 0.1 mM, 25 μM alpha-TS (no alpha-TS 70)); 28% with rat hepatocytes [4] (Doxorubicin 100 μM, 25 μM alpha-TS (no alpha-TS 62)); 49% in the series on rat hepatocytes [4] (Hypoxia 4 hrs N2 and 2 hrs O2, 25 μM alpha-TS (no alpha-TS 70)); 24% with rat hepatocytes [4] (Ionophore A23187 5 μM, 25 μM alpha-TS (no alpha-TS 73)). Further, in the series on rat hepatocytes [4] (rat hepatocytes, 25 μM, 5 μM A23187), the “protection from lethal effects of ionophore A23187” value is “protected rat hepatocytes from the lethal effects”. For the same compound, the “survival time of paraquat exposed rats” value in the series with Sprague-Dawley rats came out at 6 days. Besides, the “cytoprotective effect at 3.5 mM Ca2+” value with rat hepatocytes [5] (3.5 mM Ca2+) is given as “eliminated the cytoprotective effect”. Further, the “protection of rat hepatocytes from toxic effects of drugs” value in the series with rat hepatocytes [5] (Ca2+ free medium) is “protected from the toxic effects of drugs”.

The values above are taken from US5336485A, “Method for protecting animals against tacrine induced cytotoxic injury using sterol compounds” (priority 1993, dated 1994).
